Measurements published in patent publication US20110034385A1, “Compositions Useful for the Treatment of Diabetes and Other Chronic Disorder” (NATIONAL INSTITUTE OF IMMUNOLOGY, priority 2008, published 2011).

How the values were obtained:
[1] = tested on: rats with kaolin/carrageenan (KC) arthritis; test: Hot plate test in kaolin/carrageenan arthritis; assay type: in vivo, rat
Method: Male wistar rats, weighing 180-220 g were selected and fed ad libitum. After four days of acclimatization, the rats were divided into five groups. Group I—control, Group II—Ibuprofen (10 mg/kg b.wt.), Group III—Ibuprofen (50 mg/kg b.wt.), Group IV—Ibuprofen coupled to transthyretin (TTR) or GNNQQNY injected intraperitoneally and Group V—carrageenin control. Groups II-V was anesthetized with halothane and KC arthritis was induced by an intra-articular injection of a mixture of 3% kaolin and 3% carrageenan (0.1 ml in sterile saline) into the synovial cavity of right knee joint. The joint was then manipulated by rapid flexion and extension movements for 1 min. Half an hour after injection of kaolin/carrageenan, the animals were treated as indicated above, with group II and II receiving daily injections of Ibuprofen orally. In the hot plate test method, rats from each group were placed on an analgesiometer, at a temperature of 55° C., and the latency in licking their paw was determined with a stop watch, one hour after treatment on day one (FIG. 32a), and thereafter everyday for four days (FIG. 32b). A 90-s cut-off time was imposed to prevent tissue damage.

[2] = tested on: ovariectomized (OVX) rats; conditions: rat, in vivo
Method: 44 female Sprague-Dawley rats (Charles River Laboratory, Wilmington, Mass.), approximately 90 days of age with an average body weight of 230 g were grouped into four groups at the beginning of the study. All rats were anesthetized with an intraperitoneal injection of ketamine hydrochloride and xylazine at doses of 50 and 10 mg/kg body weight (BW), respectively. Bilateral ovariectomies were performed in three groups from a dorsal approach. All rats were housed individually at 25° C. with a 12 h light/12 h dark cycle. The food consumption of ovariectomized (OVX) rats was restricted to that of the control rats to minimize increase in the body weight associated with ovariectomy. All rats were treated for 8 weeks with vehicle or Human/salmon CT (Sigma) either intermittently by subcutaneous injection or continuously by Alzet osmotic minipumps (Model 2ML4; Alza Corp., Palo Alto, Calif.) containing 200 μl of either CT (4 μg/kg) or SCA (Supramolecular calcitonin assembly) (2 mg/ml) in 2% mannitol, designed to deliver the solutions at a constant rate of 2.5 μl/h for 28 days. The intermittent treatments started a day after surgery. The minipumps for continuous CT or Calcitonin SCA or vehicle treatments were implanted at the time of surgery (day 0) and replaced after 3 weeks in case of continuous CT and vehicle treatment. […] For subcutaneous injections of CT, the hormone was dissolved in a vehicle of 2% mannitol.
Half of the OVX rats from this group were injected subcutaneously on alternate days with 2% mannitol as a vehicle. The remaining OVX rats in this group were implanted subcutaneously with Alzet osmotic minipumps for continuous infusion of vehicle.
Each OVX rat of one group was injected subcutaneously on alternate days with salmon CT at a dose of 16 U/kg BW (4 μg/kg b wt), and the other was implanted subcutaneously with an Alzet osmotic minipump for continuous infusion of human CT. The daily dose delivered to each rat by the minipump was 8 U/kg BW (2 μg/kg BW), which was equivalent to the dose given to the preceding group through subcutaneous injections on alternate days (16 U/kg).
Serum samples were stored at −80° C. until analyzed for their CT concentration by immunoassay methods with a commercially available kit (Bio-Merica). […] Calcitonin in serum was measured by an immunoassay kit.
Data are expressed as the mean±standard deviation (SD) for each group. Statistical differences were evaluated by analysis of variance. P values<0.05 were considered to be significant.

MCF 7 cells = test: MTT cell proliferation assay; assay type: cell-based; conditions: 3 days after treatment
Method: Cells were plated in 24-well plates with 10,000 cells/well in regular DMEM media containing 10% FBS. All treatments were done in triplicates. Growth was measured 3 days after treatment. Growth was assayed by the MTT assay. A total of 50 μl of 5 mg/ml MTT solution in PBS was added to each well. After incubation for 4 h at 37° C., formazan crystals were lysed with 500 μl of solubilization solution (20% SDS, 50% DMSO). Absorbance was measured with a plate reader at 570 nm using a 670-nm differential filter.

## CC(C)Cc1ccc(C(C)C(=O)O)cc1 (centres unmarked) [Ibuprofen]
[1]; 10 mg/kg b.wt orally
  latency in licking paw (heat endured): up to 12 sec
[1]; 50 mg/kg b.wt orally
  latency in licking paw (heat endured): ≤ 17 s

## CC(C)C[C@H](NC(=O)[C@H](CCCCN)NC(=O)CNC(=O)[C@H](CC(C)C)NC(=O)[C@@H](NC(=O)[C@@H]1CSSC[C@H](N)C(=O)N[C@@H](CO)C(=O)N[C@@H](CC(N)=O)C(=O)N[C@@H](CC(C)C)C(=O)N[C@@H](CO)C(=O)N[C@@H]([C@@H](C)O)C(=O)N1)C(C)C)C(=O)N[C@@H](CO)C(=O)N[C@@H](CCC(N)=O)C(=O)N[C@@H](CCC(=O)O)C(=O)N[C@@H](CC(C)C)C(=O)N[C@@H](Cc1c[nH]cn1)C(=O)N[C@@H](CCCCN)C(=O)N[C@@H](CC(C)C)C(=O)N[C@@H](CCC(N)=O)C(=O)N[C@H](C(=O)N[C@@H](Cc1ccc(O)cc1)C(=O)N1CCC[C@H]1C(=O)N[C@@H](CCCNC(=N)N)C(=O)N[C@H](C(=O)N[C@@H](CC(N)=O)C(=O)N[C@H](C(=O)NCC(=O)N[C@@H](CO)C(=O)NCC(=O)N[C@H](C(=O)N1CCC[C@H]1C(N)=O)[C@@H](C)O)[C@@H](C)O)[C@@H](C)O)[C@@H](C)O [SCA]
[2]
  Calcitonin (serum): 19.1 ± 4.2
  antibody against salmon calcitonin: negligible
  serum levels of calcitonin: 0.019 ng/mL
  time depot keeps on releasing calcitonin: 6-8 weeks
  time serum calcitonin maintained at a higher level: up to 60 days

## IGF 1: Insulin like growth factor I, positive control for proliferation of MCF 7 cells
MCF 7 cells
  proliferation of MCF 7 cells: mitogenic
